Patent publication US9724351B2, “Compounds for the treatment of paramoxyvirus viral infections” (priority 2012, dated 2017)

Key:
[1] = tested on: Respiratory Syncytial Virus (RSV) long strain (ATCC#VR-26); assay: RSV Antiviral Assay (CPE reduction assay); format: cell-based; conditions: human respiratory syncytial virus, 120 h; HEp-2 cells infected with RSV long strain, 5 days, CCK-8 readout; bins (Table 2: less than 1 μM; Table 3: equal to or higher than 1 μM and less than 50 μM); read-out: 50% effective concentration (EC50)
Description: CPE reduction assays are performed as described by Sidwell and Huffman et al., Appl. Microbiol. (1971) 22(5):797-801 with slight modifications. HEp-2 cells (ATCC#, CCL-23) are seeded at a density of 1,500 cells/30 μl/well into the 384-well cell plate(s) (Corning#3701) one day prior to the assay. Compounds are added into 384-well cell plates by Labcyte POD 810 Plate Assembler system. Each of the test compounds is provided to duplicate wells of a 384-well cell plate at final concentrations starting from 100 μM or 1 μM using ⅓ stepwise dilutions for 9 points. Quick-thaw Respiratory Syncytial Virus (RSV) long strain (ATCC#VR-26) stock in a 37° C. water bath. Place on ice until ready to use. Viruses are diluted to the concentration of 100 TCID50/30 μl with medium and 30 μl diluted RSV are added into related wells of 384-well cell plates. For each plate, sixteen wells are set aside as uninfected, untreated cell controls (CC), and nine wells per test plate receive virus only as a control for virus replication (VC). The final DMSO concentration of all wells is 1%. Place the plates at 37° C., 5% CO2 for 5 days.
After 5 days incubation, observe the CPE of cells in all wells. […] Six μl of cell counting kit-8 reagent (CCK-8, Dojindo Molecular Technologies Inc., CK04-20) are added to each well, which allows colorimetric assays to determine the number of viable cells through the dehydrogenase activity detection. After 3-4 hour incubation, the absorbance of each well is measured with a spectrophotometric plate reader at 450 nm wavelength, using a 630 nm filter as background according to manufacturer's instruction. The 50% effective concentration (EC50) is calculated by using regression analysis, based on the mean O.D. at each concentration of compound.

[2] = Cytotoxicity Determination; format: cell-based; conditions: human, HEp-2 cells, without addition of virus, CCK-8 readout, bins (Table 4: greater than 100 μM; Table 5: equal to or less than 100 μM and greater than 10 μM), read-out: 50% cytotoxicity concentration (CC50)
Description: In order to determine the compound cytotoxicity, in parallel, each of the compounds is applied to duplicate wells in a 384-well cell plate at serial final concentrations starting from 100 μM using ½ stepwise dilutions for 7 points without addition of virus. Incubate the cells at 37° C., 5% CO2 for 5 days. Add 6 μl CCK-8 into each well and incubate in a CO2 incubator at 37° C. for 3-4 hours. Read the plates to obtain the optical densities which are used to calculate 50% cytotoxicity concentration (CC50).

SMILES | EC50 [1] [µM] | CC50 at 5 days [2] [µM]
COc1ccc2scc(/C(C)=N/NC(=O)CNC(=O)c3ccc(OC)c(OC)c3)c2c1 [Compound 400-9] | 1 to 50 | 10 to 100
COc1ccc(C(=O)NCC(=O)N/N=C(\C)c2csc3ncccc23)cc1OC [Compound 400-10] | 1 to 50 | > 100
COc1ccc(C(=O)NCC(=O)N/N=C(\C)c2csc3c(Cl)cccc23)cc1OC [Compound 400-11] | 1 to 50 | 10 to 100
COc1ccc(C(=O)NCC(=O)N/N=C/c2csc3c(Cl)cccc23)cc1OC [Compound 400-12] | 1 to 50 | 10 to 100
COc1ccc(C(=O)NCC(=O)N/N=C(\CCO)c2csc3c(F)cccc23)cc1OC [Compound 400-13] | 1 to 50 | > 100
COc1ccc(C(=O)NCC(=O)N/N=C(/C)c2c(OC)sc3ccccc23)cc1OC [Compound 400-14] | 1 to 50 | > 100
COCC/C(=N\NC(=O)CNC(=O)c1ccc(OC)c(OC)c1)c1csc2c(F)cccc12 [Compound 400-15] | < 1 | > 100
COCC/C(=N/NC(=O)CNC(=O)c1ccc(OC)c(OC)c1)c1csc2c(F)cccc12 [Compound 400-16] | 1 to 50 | > 100
COc1ccc(C(=O)NCC(=O)N/N=C/c2csc3cc(F)ccc23)cc1OC [Compound 400-17] | 1 to 50 | 10 to 100
CNc1ccc2scc(/C=N/NC(=O)CNC(=O)c3ccc(OC)c(OC)c3)c2c1 [Compound 400-18] | 1 to 50 | > 100
COc1ccc(C(=O)NCC(=O)N/N=C(\C)c2c(OC)sc3ccccc23)cc1OC [Compound 400-19] | 1 to 50 | 10 to 100
COCC/C(=N/NC(=O)CNC(=O)c1ccc(OC)c(OC)c1O)c1csc2c(F)cccc12 [Compound 400-21] | 1 to 50 | > 100
COc1ccc(C(=O)NCC(=O)N/N=C(\C)c2csc3cc(F)ccc23)cc1OC [Compound 400-22] | 1 to 50 | 10 to 100
CCN1C/C(=N\NC(=O)CNC(=O)c2ccc(OC)c(OC)c2)c2c(sc3c(F)cccc23)C1 [Compound 400-23] | < 1 | > 100
CNCc1ccc(C(=O)NCC(=O)N/N=C(\CCOC)c2csc3c(F)cccc23)cc1OC [Compound 400-24] | 1 to 50 | > 100
CCOc1ccc(C(=O)NCC(=O)N(C)/N=C/c2csc3c(F)cccc23)cc1OC [Compound 400-25] | < 1 | > 100
CCOc1ccc(C(=O)NCC(=O)N/N=C/c2csc3c(F)cccc23)cc1OC [Compound 400-26] | < 1 | > 100
CCOc1ccc(C(=O)NCC(=O)N/N=C/c2c[nH]c3c(F)cccc23)cc1OC [Compound 400-27] | 1 to 50 | > 100
CCOc1ccc(C(=O)NCC(=O)N/N=C/c2coc3c(F)cccc23)cc1OC [Compound 400-28] | 1 to 50 | > 100
COc1ccc(C(=O)NCC(=O)N/N=C/c2c(C)sc3ccccc23)cc1OC [Compound 400] | 1 to 50 | 10 to 100
COc1ccc(C(=O)NCC(=O)N/N=C/c2csc3ccccc23)cc1OC [Compound 401] | 1 to 50 | 10 to 100
COc1ccc(C(=O)NCC(=O)N/N=C/c2cccc3ccccc23)cc1OC [Compound 402] | 1 to 50 | 10 to 100
COc1ccc(C(=O)NCC(=O)N/N=C/c2c(C)[nH]c3ccccc23)cc1OC [Compound 403] | 1 to 50 | > 100

SMILES | EC50 [1] [µM] | CC50 at 5 days [2] [µM]
COc1ccc(C(=O)NCC(=O)N/N=C/c2cc3ccccc3o2)cc1OC [Compound 409] | 1 to 50 | 10 to 100
COc1ccc(C(=O)NCC(=O)N/N=C(\C)c2csc3ccccc23)cc1OC [Compound 411] | < 1 | 10 to 100
COc1ccc(C(=O)NCC(=O)N/N=C(\C)c2c(C)sc3ccccc23)cc1OC [Compound 413] | 1 to 50 | 10 to 100
COc1ccc(C(=O)NCC(=O)N/N=C2\CCCc3[nH]c4ccccc4c32)cc1OC [Compound 414] | 1 to 50 | 10 to 100
CC/C(=N\NC(=O)CNC(=O)c1ccc(OC)c(OC)c1)c1csc2ccccc12 [Compound 415] | < 1 | 10 to 100
COc1ccc(C(=O)NCC(=O)N/N=C2\CCc3sc4ccccc4c32)cc1OC [Compound 418] | 1 to 50 | 10 to 100
COc1ccc(C(=O)NCC(=O)N/N=C(\C)c2csc3ccc(F)cc23)cc1OC [Compound 422] | 1 to 50 | 10 to 100
CCCC/C(=N\NC(=O)CNC(=O)c1ccc(OC)c(OC)c1)c1csc2ccccc12 [Compound 423] | < 1 | > 100
COc1ccc(C(=O)NCC(=O)N/N=C(/c2csc3ccccc23)C2CC2)cc1OC [Compound 426] | 1 to 50 | 10 to 100
CCC/C(=N\NC(=O)CNC(=O)c1ccc(OC)c(OC)c1)c1csc2ccccc12 [Compound 427] | < 1 | > 100
COc1ccc(C(=O)NCC(=O)N/N=C(/c2ccccc2)c2ccc(F)cc2)cc1OC [Compound 430] | 1 to 50 | > 100
C=C(C)/C(=N\NC(=O)CNC(=O)c1ccc(OC)c(OC)c1)c1csc2ccccc12 [Compound 434] | 1 to 50 | > 100
COc1ccc(C(=O)NCC(=O)N/N=C2\CCCc3sccc32)cc1OC [Compound 436] | 1 to 50 | > 100
COc1ccc(C(=O)NCC(=O)N/N=C(\C)c2cc(C)sc2C)cc1OC [Compound 438] | 1 to 50 | > 100
COc1ccc(C(=O)NCC(=O)N/N=C(\C)c2coc3ccccc23)cc1OC [Compound 439] | 1 to 50 | > 100
COc1ccc(C(=O)NCC(=O)NN=C(c2ccccc2)c2ccccc2)cc1OC [Compound 440] | 1 to 50 | > 100
COc1ccc(C(=O)NCC(=O)NN=C(c2ccccn2)c2ccccn2)cc1OC [Compound 441] | 1 to 50 | > 100
COc1ccc(C(=O)NCC(=O)N/N=C(\CO)c2csc3ccccc23)cc1OC [Compound 442] | 1 to 50 | > 100
COC/C(=N\NC(=O)CNC(=O)c1ccc(OC)c(OC)c1)c1csc2ccccc12 [Compound 443] | 1 to 50 | > 100
COc1ccc(C(=O)NCC(=O)N/N=C(\CF)c2csc3ccccc23)cc1OC [Compound 444] | 1 to 50 | > 100
COc1ccc(C(=O)NCC(=O)N/N=C(/c2csc3ccccc23)C(F)F)cc1OC [Compound 445] | 1 to 50 | > 100
COc1ccc(C(=O)NCC(=O)N/N=C2\CCCc3sc4ccccc4c32)cc1OC [Compound 446] | < 1 | > 100
COc1ccc(C(=O)NCC(=O)N/N=C2\CCNc3ccccc32)cc1OC [Compound 447] | 1 to 50 | > 100
